In patent US20140093525A1, “COMPOSITIONS AND METHODS OF TREATING OPIOID ADDICTION” (Minneapolis Medical Research Foundation, priority 2012, published 2014):
pIC50: −log10 of the molar value. Where two headings read alike, the source gives them in different places. Where a SMILES comes first, the peptide text is derived from it. The star is where a group is joined. X1 = COc1ccc2c3c1OC1C(=NOCC(=O)*)CCC4(O)C(C2)N(C)CCC314

Experiments:
Anti-OXY antibodies = test: Competitive ELISA of serum from animals immunized with OXY(Gly)4-KLH, OXY(Gly)4-OVA as coating antigen; format: binding, rat
Experimental: Because plateau values differed, IC50 values for each inhibitor were calculated based on the percentage of inhibition of the optical density of primary antibodies incubated with saline.

[1] = test system: serum antibodies elicited by M-KLH; test: Competition ELISA of serum from rats vaccinated with M-KLH
[2] = test system: serum antibodies elicited by OXY-KLH; test: Competition ELISA of serum from rats vaccinated with OXY-KLH
Male Holtzman rats [3] = test: Example 4: drug distribution studies (OXY in serum and brain); format: in vivo, rat; settings: pre-treatment with 0.003 mg/kg NLTX; 2.25 mg/kg OXY s.c.
Experimental: Plasma and brain collected at 33 min after behavioral assessment on the hot plate, and measured using gas chromatography coupled to mass spectrometry.

Male Holtzman rats [4] = test: Example 4: thermal nociception (hot plate) after OXY, naltrexone and OXY-KLH vaccine; format: in vivo, rat
Experimental: Male Holtzman rats immunized once every 3 weeks for a total of 3 injections i.p., with 25 μg immunogen in Freund's adjuvant.
Significant differences existed between saline pretreated control rats and rats receiving NLTX. For pharmacokinetic experiments NLTX dose of 0.003 mg/kg was chosen based on MPE %. *p<0.05.

[5] = relative to OXY, OXY(Gly)4-OVA as ELISA coating antigen

Compound | Cross-Reactivity (%) (Anti-OXY antibodies) | pIC50 (Anti-OXY antibodies) | affinity, competition or binding to antibodies (in words) (Anti-OXY antibodies) | relative affinity of antiserum / cross-reactivity (in words) [1] | relative affinity of antiserum / cross-reactivity (in words) [2] | also measured
COc1ccc2c3c1O[C@H]1C(=O)CC[C@H]4[C@@H](C2)N(C)CC[C@]314 [Hydrocodone] | 0.2% | 5.00 | substantially lower | relatively low IC50 values | relatively low IC50 values | –
CCC(=O)C(CC(C)N(C)C)(c1ccccc1)c1ccccc1 (stereo not drawn) [Methadone] | – | – | no measurable binding | – | – | –
CN1CC[C@]23c4c5ccc(O)c4O[C@H]2[C@@H](O)C=C[C@H]3[C@H]1C5 [Morphine] | 0.1% | – | substantially lower | – | – | –
C=CCN1CC[C@]23c4c5ccc(O)c4O[C@H]2C(=O)CC[C@@]3(O)[C@H]1C5 [Naloxone] | – | – | – | – | – | affinity, competition or binding to antibodies (in words) (Anti-OXY antibodies; competitive ELISA, serum from OXY(Gly)4-KLH immunized animals): substantially lower; Cross-Reactivity (%) (Anti-OXY antibodies; [5]): 1.2%
O=C1CC[C@@]2(O)[C@H]3Cc4ccc(O)c5c4[C@@]2(CCN3CC2CC2)[C@H]1O5 [Naltrexone] | – | – | substantially lower | – | – | effect on distribution of OXY in immunized rats (in words) (Male Holtzman rats [3]): does not alter the distribution of OXY; pIC50 (Anti-OXY antibodies; competitive binding, OXY(Gly)4-OVA as ELISA coating antigen): 5.30; Cross-Reactivity (%) (Anti-OXY antibodies; [5]): 0.4%; effect on acute behavioral effects of OXY, thermal nociception (in words) (Male Holtzman rats [4]; NLTX 0.001-0.01 mg/kg s.c. 15 min prior to 2.25 mg/kg OXY): dose-dependently blocks; effect on behavioral tolerance to OXY (in words) (Male Holtzman rats [4]; repeated OXY administration): unable to block the effects of tolerance
COc1ccc2c3c1OC1C(=NOCC(=O)NCC(=O)NCC(=O)NCC(=O)NCC(=O)O)CCC4(O)C(C2)N(C)CCC314 (stereo not drawn) [OXY(Gly)4] (X1-GGGG-OH) | >100% | 8.52 | high affinities | – | – | –
COc1ccc2c3c1O[C@H]1C(=O)CC[C@@]4(O)[C@@H](C2)N(C)CC[C@]314 [OXY, Oxycodone] | 100% | 7.77 | high affinities | – | – | –
CN1CC[C@]23c4c5ccc(O)c4O[C@H]2C(=O)CC[C@@]3(O)[C@H]1C5 [Oxymorphone] | 63% | 7.52 | – | – | high relative affinities | –
CC(=O)Oc1ccc2c3c1O[C@H]1[C@@H](OC(C)=O)C=C[C@H]4[C@@H](C2)N(C)CC[C@@]341 [heroin] | – | – | – | high relative affinities | low relative affinity | –
tetraglycine [(Gly)4] | – | – | no measurable competition or binding | negligible | negligible cross-reactivity | –
